For this assay, the target named is T1, PLK1 (Homo sapiens, UniProt P53350).
T1 construct: full-length PLK1, N-terminal NLuc fusion (NLuc-PLK1)
The assay is described as follows: live-cell NanoBRET probe titration with and without excess compound […]. It is filed as cell-based. For orientation: In BRET a luciferase serves as donor, and the signal depends on an acceptor being close.

The structures appear in SMILES notation.

T1 sequence (P53350 whole entry, the tested form may be a part): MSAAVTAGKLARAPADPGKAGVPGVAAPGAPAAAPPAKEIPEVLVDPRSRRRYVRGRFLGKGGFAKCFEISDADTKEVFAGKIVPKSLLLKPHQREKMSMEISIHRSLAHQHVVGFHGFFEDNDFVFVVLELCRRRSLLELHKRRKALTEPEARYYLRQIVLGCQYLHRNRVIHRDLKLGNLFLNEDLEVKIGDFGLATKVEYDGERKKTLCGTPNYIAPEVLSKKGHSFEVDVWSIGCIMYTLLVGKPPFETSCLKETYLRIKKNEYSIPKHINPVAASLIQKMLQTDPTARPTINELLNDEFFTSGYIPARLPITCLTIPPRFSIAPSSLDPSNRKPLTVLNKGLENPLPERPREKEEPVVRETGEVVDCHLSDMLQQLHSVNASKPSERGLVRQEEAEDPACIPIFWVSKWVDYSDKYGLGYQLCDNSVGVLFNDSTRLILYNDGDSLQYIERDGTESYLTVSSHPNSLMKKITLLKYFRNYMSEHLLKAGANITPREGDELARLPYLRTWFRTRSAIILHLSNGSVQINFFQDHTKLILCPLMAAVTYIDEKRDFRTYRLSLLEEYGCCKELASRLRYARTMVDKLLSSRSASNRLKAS

Take `CC[C@@H]1C(=O)N(C)c2cnc(Nc3ccc(C(=O)NC4CCN(C(=O)CCOCCOCCOCCOCCNC(=O)CCc5ccc6n5[B-](F)(F)[N+]5=C(c7ccc[nH]7)C=CC5=C6)CC4)cc3OC)nc2N1C(C)C` [compound 11, (R)-N-(1-(1-(5,5-difluoro-7-(1H-pyrrol-2-yl)-5H-5^λ,6^λ-dipyrrolo[1,2-c:2',1'-f][1,3,2]diazaborinin-3-yl)-3-oxo-7,10,13,16-tetraoxa-4-azanonadecan-19-oyl)piperidin-4-yl)-4-((7-ethyl-8-isopropyl-5-methyl-6-oxo-5,6,7,8-tetrahydropteridin-2-yl)amino)-3-methoxybenzamide]: a half-maximal effect (EC50) was put at 300 nM.

One may read the EC50 as the concentration at which the effect is half-maximal. Low readings indicate greater potency, high ones weaker potency.

The values above are taken from publication doi:10.1101/2023.02.25.529946, “Development of Cell Permeable NanoBRET Probes for the Measurement of PLK1 Target Engagement in Live Cells” (bioRxiv, 2023).
